Data from a melting point compilation (Tetko et al.).

Structure (SMILES)	melting point [°C]
CN(C)c1ccc(C#N)cc1F	34 to 36
Cc1coc(-c2ccc(C)c(N)c2)n1	114 to 116
COc1cccc(CNC(=O)C(C)Cl)c1 (stereo not given)	89 to 91
O=C(CCl)NC1CCCCCCC1	82 to 84
O=[N+]([O-])c1cncc(Br)c1	99 to 101
O=C(NCCc1ccccn1)OCC(F)(F)F	59 to 61
COc1ccc(CC(=O)NO)cc1	159 to 161
NC(=S)C1CCCCC1	115 to 117
COC1(OC)C2(Cl)C3C(=O)C4C5C(=O)C3C1(Cl)C5(Cl)C42Cl (stereo not given)	155 to 157
COC(=O)c1cnc(Cl)c(S(=O)(=O)N2CCOCC2)c1	132 to 134
O=C1CCCOc2cc(F)ccc21	37 to 39
Nc1ncnc(Cl)c1C=O	159 to 161
NS(=O)(=O)CCN1CCNCC1	144 to 146
Cc1ccc2oc(-c3nnc(S)n3N)cc2c1	228 to 230
Nc1cc(Cl)c(-c2cc(Cl)c(N)cc2Cl)cc1Cl	135 to 140
Cc1ccc(C(=O)NCCN)cc1F	71 to 73
Nc1cccc(CS(=O)C2CCOCC2)c1 (stereo not given)	125 to 127
Cc1nn(C)c(C)c1C(O)C(F)(F)F (stereo not given)	140 to 142
CNC(=O)c1cccc(CCl)c1	61 to 63
CC(C)(C)NS(=O)(=O)c1cc(N)c(F)cc1F	109 to 111
Cc1nnc(CN)s1	76 to 78

Structure (SMILES)	melting point [°C]
COc1nc(C)cc(=O)[nH]1	199 to 201
Cc1nc(C#N)c(NN)o1	157 to 159
O=Cc1c(Cl)cccc1OC(F)F	37 to 39
CC(C)Nc1nnc(S)s1	194 to 196
COc1ccnc(N2CCNCC2)c1	36 to 38
NCC1(C(N)=O)CCOCC1	113 to 115
Cc1cc(C)c(C(N)=O)c(Cl)n1	172 to 174
O=C(CCl)NCCc1ccc2c(c1)OCCO2	72 to 76
CNCc1nnc[nH]1	91 to 93
COc1ccc(N)c(OC)n1	210 to 212
O=C1NC(=O)C2(CCNCC2)N1	240 to 250
O=C(CCl)Nc1ccc2c(c1)OCCCO2	108 to 110
Cc1nn(C(F)F)c(C)c1CC(=O)O	173 to 175
O=C(C=NO)Nc1ccc2c(c1)OCCO2	130 to 132
CCCOc1ccc2c(c1)OCC(C=O)=C2	55 to 57
O=C(O)CNC(=O)C1CCC1	107 to 109
Nc1c(Cl)ncnc1NC1CC1	139 to 141
COc1ccc(C(=O)N2CCN(C)CC2)cc1N	114 to 116
CC1(C)CCc2c(sc(N)c2C(N)=O)C1	144 to 146
ON=C1CCC1	82 to 84
ClCc1nc(Cl)c2c3c(sc2n1)CCCC3	89 to 91

Structure (SMILES)	melting point [°C]
Cc1cc(C)c(CBr)c(C)c1	49 to 51
Cc1nn(C)c(Br)c1C#N	109 to 111
C#Cc1cccc(OC)n1	47 to 49
Cn1c(=O)oc2ccc(N)cc21	229 to 231
COc1ccc(S(=O)(=O)Cl)cc1NC(C)=O	145 to 147
CC1CCCC(C)N1C(=O)c1cc(Cl)ccc1N (stereo not given)	169 to 171
Nc1cc(F)c(F)cc1Br	47 to 49
COC(=O)Nc1ccc(CO)cc1	79 to 81
Cc1nn(-c2cncc3nnnn23)c(C)c1CC(=O)O	173 to 175
Cc1ccc(S(=O)(=O)OC(c2nc(C)cs2)C(F)(F)F)cc1 (stereo not given)	105 to 107
CC(C)Cn1cnc(S(N)(=O)=O)c1	144 to 146
N#Cc1ccc(CS(=O)(=O)CC(=O)O)cc1	197 to 199
CCNC(=O)Nc1cc(F)ccc1N	147 to 149
Cc1n[nH]c(C(=O)O)c1O	184 to 186
CS(=O)(=O)c1ccc(N)cc1Cl	193 to 195
Cc1oc(C)c(C(=O)O)c1C	131 to 133
CC(=O)c1ccc(S(=O)(=O)N2CCCCCC2)cc1	73 to 77
NC1CCN(C(=O)C2CCCCC2)C1 (stereo not given)	72 to 74
Cc1cc(-c2nc(C)cs2)c(=O)[nH]n1	267 to 269
CCCc1nc(N)sc1CC	53 to 55
O=C1NCCNC1c1ccc(C(F)(F)F)cc1 (stereo not given)	141 to 143

Structure (SMILES)	melting point [°C]
CSc1nc(C2CC2)cc(C(=O)O)c1C#N	181 to 183
FC(F)(F)c1ccnc(N2CCNCC2)n1	49 to 51
c1ccc(CN2CCN(Cc3ccccc3)CC2)cc1	89 to 91
O=[N+]([O-])c1ccc(Cl)c(S(=O)(=O)Nc2nc3ccc(Cl)cc3s2)c1	328 to 330
CCNC(=O)C1CCCNC1 (stereo not given)	60 to 62
Cc1nc(CO)c(C)s1	44 to 46
CC(C)(C)OC(=O)N1CCCC(C(C)(C)C(=O)O)C1 (stereo not given)	96 to 98
O=S(=O)(Cl)C=Cc1ccc(Cl)cc1	131 to 133
Cc1cc(N)n(C(=O)OC(C)(C)C)n1	135 to 137
N#Cc1c(OCCO)n[nH]c1N	163 to 165
O=C(O)Cc1c(F)cncc1Cl	99 to 101
CC(C)(C)c1ccc(S(=O)(=O)CCN)cc1	46 to 48
Cc1cc(C)c2nc(O)cc(C)c2c1	261 to 263
[N-]=[N+]=Nc1ccnc(CO)c1	59 to 61
COC(=O)C1CCc2cn[nH]c2C1 (stereo not given)	64 to 66
CC(C)(C)OC(=O)N1C2CCC1C(C(=O)O)C2 (stereo not given)	144 to 146
Nc1ncn(Cc2cccnc2)n1	112 to 114
COC1=CC(=C(N)N=O)C=CN1	174 to 176
Cc1cc(F)cc(C(=O)O)c1[N+](=O)[O-]	161 to 163
O=C1NCCCc2cc(O)ccc21	219 to 221

Continued, values first:

melting point [°C]	Structure (SMILES)
195 to 197	Nc1cc(Cl)c(NC(=O)c2cnccn2)c(Cl)c1
86 to 88	Cc1ccc(OCc2nc(C=O)cs2)cc1
115 to 117	NC1CCCS(=O)(=O)c2ccccc21 (stereo not given)
105 to 107	Cc1ccc2ncc(C=O)n2c1
99 to 101	Nc1ncc(Cc2cccc(Cl)c2)s1
83 to 85	O=C(CBr)c1cccc(N2CCCC2=O)c1
181 to 183	O=C(O)c1ccc(Br)c(S(=O)(=O)Cl)c1
217 to 219	O=C(CC(=O)Nc1ccc(F)cc1)Nc1ccc(F)cc1
183 to 185	O=C(O)c1sc2ccccc2c1CSc1ccccc1Cl
199 to 201	O=[N+]([O-])c1ccc(O)c(-n2cnnn2)c1
157 to 159	O=C(O)c1cccc(S(=O)(=O)N2CCCC2)c1
141 to 143	Oc1nnnn1-c1ccc(Cl)cc1
165 to 167	O=C(O)c1csc(-c2ccsc2)n1
79 to 81	Cn1cccc1-c1csc(N)n1
80 to 84	O=C(O)c1ccccc1OCc1ccc(F)cc1
234 to 236	CN(C)c1ccnc(C(=O)O)c1
99 to 101	COC(=O)C(Br)CN1C(=O)c2ccccc2C1=O (stereo not given)
123 to 125	O=C(O)COc1ccc(S(=O)(=O)Cl)cc1Cl
158 to 160	Nc1cc(-c2cc(Br)ccc2Cl)[nH]n1
49 to 53	CCS(=O)(=O)c1ccccc1C(=O)O
97 to 99	CC(Cl)C(=O)Nc1cccc(CSc2ccccn2)c1 (stereo not given)

melting point [°C]	Structure (SMILES)
173 to 175	O=c1cc(CCl)nc2ccccn12
299 to 301	O=C(O)c1cc(/C=C/c2ccc(F)cc2)nc2ccc(Br)cc12
290 to 292	Cc1ccc([N+](=O)[O-])cc1S(=O)(=O)Nc1ccccc1C(=O)O
193 to 195	O=C(O)c1cc(-c2cccs2)n(-c2ccccc2)n1
65 to 67	COc1ccc(Oc2ccc(C=O)cc2)cc1
179 to 181	N#Cc1cccc(OCc2cccc(C(=O)O)c2)c1
116 to 118	Cc1nnnn1-c1ccc(Br)cc1
56 to 58	NCc1ccn(-c2ccc(F)cc2)n1
103 to 106	C=CC(=O)Nc1ccccc1
104 to 106	O=C(NCc1ccc2c(c1)OCO2)C(Cl)c1ccccc1 (stereo not given)
199 to 201	O=C(O)c1c(O)cnc2ccccc12
123 to 125	OCc1cnc2ccccn12
201 to 203	COc1ccccc1NS(=O)(=O)c1ccc(C(=O)O)cc1
224 to 226	Nc1cc(N2CCNC2=O)ccc1Cl
153 to 155	N#Cc1ccccc1OCc1cccc(C(=O)O)c1
121 to 123	Nc1ccc(NC(=O)c2ccoc2)cc1C(F)(F)F
97 to 99	Fc1ccc2ccc(Cl)nc2c1
157 to 159	O=C(O)C1CCCN(C(=O)c2ccc(Br)c(F)c2)C1 (stereo not given)
102 to 104	COc1ccc(CN2CCN(C(=O)CCNC(=O)c3ccc(C(C)(C)C)cc3)CC2)cc1
198 to 200	Nc1ccc(-c2noc(=O)[nH]2)cc1
62 to 64	COc1ccc(C(=O)c2ccco2)cc1

melting point [°C]	Structure (SMILES)
148 to 150	O=C(CCl)NC(=O)NCc1cccs1
134 to 136	CC(C)(C)NC(=O)N1CCCc2c(C(=O)O)cccc21
94 to 96	COC(=O)c1cc2ccccn2c1
142 to 144	COc1cccc(-n2c(C)cc(C(=O)O)c2C)c1
124 to 126	CNc1nc(-c2ccccc2)no1
179 to 181	CN(c1cc(C(=O)O)ccn1)C1CCCC1
130 to 132	CNC(=O)NC(=O)C(Cl)c1ccccc1 (stereo not given)
69 to 71	CC(C)(C)OC(=O)N1CCNc2ccccc2C1
247 to 249	O=C(O)c1csc(-c2ccc(Cl)s2)n1
60 to 62	O=C(CCSc1ccccn1)c1ccc(F)cc1
221 to 223	O=c1cc(CO)c2ccc(O)cc2o1
132 to 134	Nc1ccc(Oc2ncccn2)cc1
139 to 141	O=C(CN1CCNCC1)N1CCc2ccccc21
146 to 148	CCc1ccc(C(=O)O)cc1N
74 to 76	CN1CCN(C(=O)c2ccccc2N)CC1
109 to 111	O=C(O)c1ccccc1C(=O)N1CCCCC1
147 to 149	Cc1nc2ccccc2n1CCO
95 to 97	O=C(Nc1sc2ccccc2c1Cl)OCC(F)(F)F
180 to 182	O=[N+]([O-])c1cc(S(=O)(=O)Nc2nc3ccccc3nc2Cl)ccc1Cl
89 to 91	Cc1nc(COc2ccccc2C(=O)O)no1
